From PubChem BioAssay AID2305 (GlaxoSmithKline (GSK), 2010)
pIC50: −log10 of the molar value.

Test system: P. falciparum 3D7 growth, pLDH absorbance
Assay: blood-stage malaria parasite growth potency – strain 3D7, dose response (AID 2305)

Row | Compound | pIC50
1 | NC(=O)C1Cc2ccccc2CN1CC(=O)Nc1ccccc1Sc1ccccc1 (stereo not given) | 7.15
2 | CN1CCN(Cc2cccc(-c3ccc4c(Nc5cc(O)c(Cl)cc5F)ccnc4c3)c2)CC1 | 6.11
3 | CCN1CCC(N(Cc2ccc(-c3ccc(C(F)(F)F)cc3)cc2)C(=O)Cn2c(CCc3cccc(F)c3F)nc(=O)c3ccccc32)CC1 | 5.97
4 | O=C(Nc1cccc(CN2CCCN(Cc3ccc(O)cc3)CC2)c1)c1ccc(Cl)c(Cl)c1 | 6.59
5 | CCN(CC)CCN(Cc1ccc(-c2ccc(C(F)(F)F)cc2)cc1)C(=O)Cn1c(/C=C/c2ccco2)nc(=O)c2ccccc21 | 6.06
6 | COc1ccc(Nc2nccc(NCCNC(=O)Nc3cc(C)ccc3C)n2)cc1 | 5.98
7 | CCCNCc1ccc(-c2ccc(CN(CCOC)C(=O)COc3ccccc3Cl)cc2)nc1 | 6.04
8 | COc1ccc(C(=O)N2CCC(CN3CCOC(c4ccccc4)(c4ccccc4)C3)CC2)cc1 | 6.77
9 | COc1ccc(CNCc2ccc(-c3cccc(-c4nc5ccc(C(F)(F)F)cc5[nH]4)c3)cc2)cc1 | 6.82
10 | CO/C(=C\C=C\c1cc2cc(Cl)c(Cl)cc2[nH]1)C(=O)NCCCN1CCN(c2cccc(Cl)c2)CC1 | 6.14
11 | CC(C)C[C@H](NC(=O)[C@H](Cc1ccccc1)N(C[C@H](Cc1ccccc1)NC(=O)OC(C)(C)C)C(=O)C(F)(F)F)C(=O)NC1CCN(Cc2ccccc2)CC1 | 6.28
12 | Cc1cc(N(C)C2CCN(C)CC2)nc(Nc2ccc(Cl)cc2)n1 | 6.54
13 | CC(C)(C)CC(C)(C)c1ccc(O)c(C(=O)Nc2cccc([N+](=O)[O-])c2)c1 | 6.23
14 | Cc1cc(NCCc2ccc(O)cc2)nc(NCC(c2ccccc2)c2ccccc2)n1 | 6.49
15 | O=C(NCCCN1CCCC1=O)NCc1ccccc1 | 6.09
16 | c1ccc2c(c1)ncc1c3ccccc3[nH]c21 | 6.06
17 | Cc1cc(O)c(CN2CCN(Cc3cccs3)CC2)cc1C(C)C | 6.14
18 | CC[C@H](NC(=O)c1c(CN2CCC(N3CCCCC3)CC2)c(-c2ccccc2)nc2c(Cl)c(O)ccc12)c1ccccc1 | 6.14
19 | Cn1cncc1C(=O)Nc1cccc(-c2ccc(-c3nc4ccccc4[nH]3)cc2)c1 | 6.07
20 | CCCc1cc(NCc2ccncc2)nc(Nc2ccc(F)cc2)n1 | 5.95
21 | Cc1ccc(CC(C)NCC(O)c2cccc([N+](=O)[O-])c2)cc1 (stereo not given) | 6.12
22 | Clc1cccc(CNC2CCN(CC3CCCCC3)CC2)c1 | 6.04
23 | CC(C)Nc1ccc(Nc2ccnc3cc4ccccc4cc23)cc1 | 6.85
24 | CN(C)c1nc2cc(-n3cnc4cc(-c5ccc(Cl)cc5)sc4c3=O)ccc2n1CCCN1CCCCC1 | 6.08

Row | Compound | pIC50
25 | O=c1cc(NCCCNCc2ccc(C(F)(F)F)cc2F)[nH]c2ccccc12 | 6.02
26 | COc1ccc(-c2ccc(NC(=O)c3cccc(F)c3)cc2)cc1CNC(C)C | 6.09
27 | CC(C)c1ccc(Nc2nc(NCCc3cnc[nH]3)nc(NCc3ccccc3)n2)cc1 | 6.16
28 | OC(CNc1ccnc(Nc2ccc(Cl)cc2)n1)c1ccc(C(F)(F)F)cc1 (stereo not given) | 6.11
29 | S=C(NCCCCCN1CCC(c2c[nH]c3ccccc23)CC1)Nc1cc(Cl)cc(Cl)c1 | 6.06
30 | C[C@H]1CN(Cc2cccc(-c3cc(CNC(=O)c4cccc(CN5CCN(CCOc6ccccc6)CC5)c4)ccc3F)c2)CCN1 | 5.95
31 | CN(C)CCN(C)Cc1cccc(-c2ccc3c(Nc4cc(O)c(Cl)cc4F)ccnc3c2)c1 | 6.62
32 | CC(C)(C)c1ccc(NC(=O)c2cccc(CN3CCCN(Cc4cccc(Cl)c4)CC3)c2)cc1 | 6.00
33 | CC(C)CNCc1cccc(-c2cccc(CNc3ccc4ncccc4c3)c2)c1 | 6.02
34 | Cc1cc(=O)[nH]c(/N=C(/N)NOCCCc2ccccc2)n1 | 6.12
35 | COc1ccc(NC(=O)c2ccc(-c3cc(NC(=O)c4ccnc(N5CCCC5)c4)ccc3C)s2)cc1N1CCN(C)CC1 | 6.60
36 | CCNc1cc(C(=O)N[C@@H](Cc2ccccc2)[C@H](O)CNC2CCC(C)(C)C2)cc(N2CCCCS2(=O)=O)c1 (stereo not given in full) | 6.85
37 | COCCNC(=O)c1ccc(OC2CCN(Cc3ccc(F)c(F)c3)CC2)c(Cl)c1 | 5.83
38 | CC[C@H]1CN(C/C=C/c2ccc(OC)cc2)CC[C@H]1CCCc1ccnc2ccc(O)cc12 | 6.18
39 | O=C(NCCN1CCOCC1)c1ccc(CNC(=O)c2ccc(O)c(-c3ccc(Cl)c(Cl)c3)c2)cc1 | 6.03
40 | Nc1nc(N)c2c(ccc3c2ccn3CCCCO)n1 | 6.92
41 | NC(N)=NN=C1C=Cc2cccc3cccc1c23 | 6.21
42 | Cc1ccccc1C1CCN(C2CCC(NC(=O)/C=C/c3cccc(F)c3)CC2)CC1 (stereo not given) | 5.92
43 | Oc1ccc2[nH]cc(C3CCN(CCCCCCCCCN4CCC(c5c[nH]c6ccc(O)cc56)CC4)CC3)c2c1 | 6.51
44 | CCN(CC)CCCC(C)Nc1ccnc2ccc(-c3ccccc3)cc12 (stereo not given) | 6.19
45 | O=C(NCCN1CCCC1)c1ccc(-c2ccc(-c3nc4ccc(C(F)(F)F)cc4[nH]3)s2)cc1 | 6.12
46 | CN(C)CCCNCc1ccc(-c2ccc(CNCCc3ccccc3)cc2)cc1 | 6.00
47 | O=C(Nc1ccc(-c2nc3ccccc3[nH]2)cc1)c1ccc(N2CCOCC2)c([N+](=O)[O-])c1 | 6.10
48 | Nc1ncc(-c2cccc(CCN3CCOCC3)c2)cc1-c1nc2ccc(Br)cc2[nH]1 | 6.55

Row | Compound | pIC50
49 | CC(C)C[C@H](NC(=O)c1cc2ccccc2s1)C(=O)N[C@H]1CCN(Cc2ccc(OCCN3CCNCC3)c3ccccc23)C1 | 5.85
50 | CCCCCN1CCCC(NS(=O)(=O)c2ccc(C(=O)Nc3cccc(C(F)(F)F)c3)cc2)C1 (stereo not given) | 6.10
51 | Cc1cc(N)nc2ccc(-c3cccc(CN)c3)cc12 | 6.15
52 | CCN(CC)CCOc1cc2c(cc1Br)-c1cc(Br)c(OCCN(CC)CC)cc1C2=NO | 5.96
53 | O=C(/C=C/c1ccc(Cl)c(Cl)c1)N1CCN(C(=O)Nc2cccc(C(F)(F)F)c2)CC1 | 6.15
54 | Nc1ncc(-c2cccc(OCc3ccccc3)c2)cc1-c1nnc2ccc(Cl)nn12 | 5.84
55 | O=S(=O)(NCCN1CCCC1)c1cccc(-c2cccc(CNCc3ccsc3)c2)c1 | 6.06
56 | CCCN(CCC)CCCNc1ccc(C(=O)Nc2ccc(C(C)C)cc2)cc1[N+](=O)[O-] | 6.15
57 | COc1ccc(NC(=O)[C@H](Cc2ccccc2)Nc2cc(C)nc(NCCc3ccccc3OC)n2)cc1 | 6.28
58 | CCOc1ccc(Br)cc1/C=C/C(=O)Nc1ccc2c(c1)[C@@H]1CC[C@H]2N1C | 5.98
59 | CC(=O)c1ccc(-c2ccc(C(=O)NCCCCN3CCC(c4ccc5c(c4OCC(N)=O)CCCC5)CC3)cc2)s1 | 6.05
60 | Cc1ccc(CNC(=O)[C@H](CCCN)Nc2cc(C)nc(NCC3CCCCC3)n2)cc1 | 5.91
61 | Cc1ccc(NC(=O)c2ccc(N3CCC(c4ccccc4C)CC3)nc2)cc1 | 5.85
62 | COCCN1CCC(CNCC(C)(C)c2nc(-c3ccc(Cl)c(O)c3)c(-c3ccncc3)[nH]2)CC1 | 6.12
63 | Brc1cc(Br)c2c(c1)C(NCCCNc1nc3ncccc3[nH]1)CCN2 (stereo not given) | 6.23
64 | COc1cccc2c(O)c(CNC3CCCCC3)ccc12 | 6.20
65 | Fc1ccc(NC(=S)NN=Cc2ccccn2)cc1 | 6.11
66 | COc1ccc2ccc(F)c(CC(=O)N3CCOC(CNCc4cccc(-c5ccc(F)cc5)n4)C3)c2n1 (stereo not given) | 6.00
67 | Cc1ccc2nc(-c3ccc(C(=O)NC4CCN(Cc5ccccc5)CC4)s3)[nH]c2c1 | 6.00
68 | COc1ccccc1CCNc1nc(C)cc(N[C@@H](CC(C)C)C(=O)NCc2cccc(F)c2)n1 | 6.01
69 | COc1ccc2c(CNCCCCCCNCc3c(OC)ccc4cc(OC)ccc34)c(OC)ccc2c1 | 6.25
70 | c1cc(-c2cc3ccc(C4=NCCN4)cc3[nH]2)ccc1C1=NCCN1 | 6.66
